Measurements reported in US11993599B2, “Therapeutic compounds” (Genentech, Inc., priority 2021, dated 2024).

Experiments:
BRG1 = target: T1, BRG1 (Homo sapiens, UniProt P51532); experiment: Immunofluorescence assay for BRG1 degradation in SW1573 cells; type: cell-based; conditions: 20 hours incubation; for DC50: immunofluorescence mean nuclear signal, read-out: BRG1 IF Degradation IC50; for BRG1 IF Degradation Sinf (%) / Dmax: normalized to a known degrader control; for Dmax: SW1573, 20 h, read-out: BRG1 IF Degradation Sinf (%)
T1 construct: either BRM primary antibody (Cell signaling Cat #11966) or BRG primary antibody (Abcam, ab 110641); endogenous in cells; host or cells: SW1573
Outline: (§1)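 SW1573 cells were treated with compound for 20 h, fixed, permeabilized and immunostained for BRM or BRG1 with a Hoechst nuclear counterstain. Mean nuclear signal intensity per cell was quantified by high-content imaging, normalized to a known degrader control, and dose-response curves were fit with a floating maximum to derive Dmax.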

BRM = BRM (Homo sapiens, UniProt P51531); experiment: Immunofluorescence assay for BRM degradation in SW1573 cells; type: cell-based; design: treated overnight at 4° C. with either BRM primary antibody (Cell signaling Cat #11966) or BRG primary antibody; endogenous in cells; host or cells: SW1573; conditions: 20 hours incubation; for DC50: immunofluorescence mean nuclear signal, read-out: BRM IF Degradation IC50; for BRM IF Degradation Sinf (%): normalized to a known degrader control
Outline: as §1

T1 sequence (P51532 whole entry): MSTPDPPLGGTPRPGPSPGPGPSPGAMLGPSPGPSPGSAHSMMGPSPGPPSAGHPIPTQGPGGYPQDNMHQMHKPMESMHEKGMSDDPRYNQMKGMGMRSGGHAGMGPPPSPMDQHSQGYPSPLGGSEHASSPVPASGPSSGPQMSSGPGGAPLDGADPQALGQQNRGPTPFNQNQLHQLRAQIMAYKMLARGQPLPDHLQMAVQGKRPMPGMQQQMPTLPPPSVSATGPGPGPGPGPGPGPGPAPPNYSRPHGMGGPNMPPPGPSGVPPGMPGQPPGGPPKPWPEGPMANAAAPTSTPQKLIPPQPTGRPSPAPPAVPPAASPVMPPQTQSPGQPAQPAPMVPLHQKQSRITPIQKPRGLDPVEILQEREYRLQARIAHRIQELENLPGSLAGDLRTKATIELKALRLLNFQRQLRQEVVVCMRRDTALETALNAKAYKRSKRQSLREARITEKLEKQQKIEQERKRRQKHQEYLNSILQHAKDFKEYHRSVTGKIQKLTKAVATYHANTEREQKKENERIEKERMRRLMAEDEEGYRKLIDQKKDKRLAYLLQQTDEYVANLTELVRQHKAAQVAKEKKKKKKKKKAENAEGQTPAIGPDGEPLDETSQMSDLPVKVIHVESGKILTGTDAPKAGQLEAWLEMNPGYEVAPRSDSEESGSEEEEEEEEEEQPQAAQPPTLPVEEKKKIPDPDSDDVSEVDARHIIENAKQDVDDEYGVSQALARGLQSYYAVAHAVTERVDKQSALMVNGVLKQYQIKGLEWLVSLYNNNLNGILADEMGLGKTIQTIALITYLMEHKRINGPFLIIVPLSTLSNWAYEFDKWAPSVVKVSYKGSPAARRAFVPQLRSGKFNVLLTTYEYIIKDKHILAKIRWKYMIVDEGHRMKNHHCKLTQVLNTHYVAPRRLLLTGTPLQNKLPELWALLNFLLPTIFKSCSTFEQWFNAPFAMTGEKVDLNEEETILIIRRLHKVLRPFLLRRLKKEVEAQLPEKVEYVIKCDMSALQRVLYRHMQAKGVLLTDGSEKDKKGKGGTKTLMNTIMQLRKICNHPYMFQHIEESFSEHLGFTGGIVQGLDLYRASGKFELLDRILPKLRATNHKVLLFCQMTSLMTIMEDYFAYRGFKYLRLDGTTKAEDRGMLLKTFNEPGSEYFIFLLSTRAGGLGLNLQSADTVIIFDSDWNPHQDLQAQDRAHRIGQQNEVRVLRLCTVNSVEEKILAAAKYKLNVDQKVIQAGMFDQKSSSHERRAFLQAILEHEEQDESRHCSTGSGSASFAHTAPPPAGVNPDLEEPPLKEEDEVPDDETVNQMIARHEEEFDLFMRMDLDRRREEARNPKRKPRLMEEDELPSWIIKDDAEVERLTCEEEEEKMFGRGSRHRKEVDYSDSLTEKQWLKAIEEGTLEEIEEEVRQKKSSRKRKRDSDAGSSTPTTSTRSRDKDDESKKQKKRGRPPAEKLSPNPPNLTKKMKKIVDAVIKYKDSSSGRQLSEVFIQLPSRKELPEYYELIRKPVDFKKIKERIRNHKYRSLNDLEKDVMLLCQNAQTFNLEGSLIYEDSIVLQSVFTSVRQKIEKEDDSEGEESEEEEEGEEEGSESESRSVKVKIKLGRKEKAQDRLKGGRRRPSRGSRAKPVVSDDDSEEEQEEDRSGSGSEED
BRM, sequence (P51531 whole entry): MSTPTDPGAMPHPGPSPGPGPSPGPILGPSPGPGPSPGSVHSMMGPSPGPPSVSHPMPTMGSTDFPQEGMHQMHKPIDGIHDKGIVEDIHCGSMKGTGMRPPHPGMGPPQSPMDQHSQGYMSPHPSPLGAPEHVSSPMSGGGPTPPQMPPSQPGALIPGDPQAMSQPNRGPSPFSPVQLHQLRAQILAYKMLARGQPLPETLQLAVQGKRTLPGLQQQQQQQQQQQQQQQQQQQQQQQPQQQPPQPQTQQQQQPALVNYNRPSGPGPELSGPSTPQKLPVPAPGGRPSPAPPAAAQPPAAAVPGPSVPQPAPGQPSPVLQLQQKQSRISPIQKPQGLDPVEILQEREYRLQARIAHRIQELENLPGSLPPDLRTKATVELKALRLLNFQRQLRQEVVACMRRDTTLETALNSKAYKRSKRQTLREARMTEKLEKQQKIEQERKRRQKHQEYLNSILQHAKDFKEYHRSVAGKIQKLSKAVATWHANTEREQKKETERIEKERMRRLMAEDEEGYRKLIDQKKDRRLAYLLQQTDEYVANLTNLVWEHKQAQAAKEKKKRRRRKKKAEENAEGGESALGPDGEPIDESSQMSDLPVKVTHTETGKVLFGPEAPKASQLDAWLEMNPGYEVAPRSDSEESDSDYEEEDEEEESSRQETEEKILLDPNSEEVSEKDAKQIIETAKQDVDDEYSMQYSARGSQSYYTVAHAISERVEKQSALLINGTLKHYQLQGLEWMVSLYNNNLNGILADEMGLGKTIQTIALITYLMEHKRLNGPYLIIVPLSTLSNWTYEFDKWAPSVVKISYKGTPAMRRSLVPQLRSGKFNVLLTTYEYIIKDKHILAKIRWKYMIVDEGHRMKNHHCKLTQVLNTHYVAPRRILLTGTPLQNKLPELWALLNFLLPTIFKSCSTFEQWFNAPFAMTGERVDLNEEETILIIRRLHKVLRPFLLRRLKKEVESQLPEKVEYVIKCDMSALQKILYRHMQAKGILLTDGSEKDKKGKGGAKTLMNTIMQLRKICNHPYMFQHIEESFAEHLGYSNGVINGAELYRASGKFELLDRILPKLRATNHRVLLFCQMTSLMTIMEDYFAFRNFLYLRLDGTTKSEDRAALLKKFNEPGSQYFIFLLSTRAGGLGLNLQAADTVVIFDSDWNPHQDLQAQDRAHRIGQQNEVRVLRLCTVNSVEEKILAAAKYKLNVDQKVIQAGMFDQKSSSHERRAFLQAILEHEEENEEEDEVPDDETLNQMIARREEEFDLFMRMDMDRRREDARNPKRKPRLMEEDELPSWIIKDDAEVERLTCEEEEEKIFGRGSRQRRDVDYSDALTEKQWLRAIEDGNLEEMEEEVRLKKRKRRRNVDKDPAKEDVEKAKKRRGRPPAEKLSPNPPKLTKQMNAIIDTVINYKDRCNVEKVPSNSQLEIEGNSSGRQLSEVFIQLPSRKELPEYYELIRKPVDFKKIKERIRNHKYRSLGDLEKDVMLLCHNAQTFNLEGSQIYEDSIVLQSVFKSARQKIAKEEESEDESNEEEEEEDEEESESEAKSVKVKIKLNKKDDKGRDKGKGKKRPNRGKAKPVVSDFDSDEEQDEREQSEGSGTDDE

Row | SMILES | DC50 (BRG1) [nM] | DC50 (BRM) [nM] | BRM IF Degradation Sinf (%) (BRM) | BRG1 IF Degradation Sinf (%) (BRG1) | Dmax (BRG1) [%]
1 | CS(=O)(=O)C1CN(CC#Cc2cc(N3C4CCC3CN(c3cc(-c5ccccc5O)nnc3N)C4)ccn2)C1 [Compound 227, 2-[6-amino-5-[8-[2-[3-(3-methylsulfonylazetidin-1-yl)prop-1-ynyl]-4-pyridyl]-3,8-diazabicyclo[3.2.1]octan-3-yl]pyridazin-3-yl]phenol] | > 100 | > 100 | E (E indicates −30%-−70%) |  | 
2 | Nc1nnc(-c2ccccc2O)cc1N1CC2CCC(C1)N2c1ccnc(C#CCN2CCC23CCOC3)c1 (centres unmarked) [Compound 167, 2-[6-amino-5-[8-[2-[3-(7-oxa-1-azaspiro[3.4]octan-1-yl)prop-1-ynyl]-4-pyridyl]-3,8-diazabicyclo[3.2.1]octan-3-yl]pyridazin-3-yl]phenol] | < 10 | < 10 | F (F indicates −71%-−120%) | F (F indicates −71%-−120%) | 
3 | Nc1nnc(-c2ccccc2O)cc1N1CC2CCC(C1)N2c1ccnc(C#CCN2CCCCC(O)C2)c1 (centres unmarked) [Compound 242, 1-[3-[4-[3-[3-amino-6-(2-hydroxyphenyl)pyridazin-4-yl]-3,8-diazabicyclo[3.2.1]octan-8-yl]-2-pyridyl]prop-2-ynyl]azepan-3-ol] | < 10 | < 10 | F (F indicates −71%-−120%) |  | 30 to 70
4 | Nc1nnc(-c2ccccc2O)cc1N1CC2CCC(C1)N2c1ccnc(C#CCN2CCCOCC2)c1 [Compound 70, 2-[6-amino-5-[8-[2-[3-(l,4-oxazepan-4-yl)prop-1-ynyl]-4-pyridyl]-3,8-diazabicyclo[3.2.1]octan-3-yl]pyridazin-3-yl]phenol] | < 10 | < 10 | E (E indicates −30%-−70%) |  | 30 to 70
5 | Nc1nnc(-c2ccccc2O)cc1N1CC2CCC(C1)N2c1ccnc(C#CCN2CCC23CCCOC3)c1 (centres unmarked) [Compound 100, 2-[6-amino-5-[8-[2-[3-(8-oxa-1-azaspiro[3.5]nonan-1-yl)prop-1-ynyl]-4-pyridyl]-3,8-diazabicyclo[3.2.1]octan-3-yl]pyridazin-3-yl]phenol] | < 10 | < 10 | E (E indicates −30%-−70%) |  | 30 to 70
6 | Nc1nnc(-c2ccccc2O)cc1N1CC2CCC(C1)N2c1ccnc(C#CCN2CC3(CCCCO3)C2)c1 [Compound 66, 2-[6-amino-5-[8-[2-[3-(5-oxa-2-azaspiro[3.5]nonan-2-yl)prop-1-ynyl]-4-pyridyl]-3,8-diazabicyclo[3.2.1]octan-3-yl]pyridazin-3-yl]phenol] | 10 to 100 | < 10 | F (F indicates −71%-−120%) |  | 30 to 70
7 | Nc1nnc(-c2ccccc2O)cc1N1CC2CCC(C1)N2c1ccnc(C#CCN2CC3(CCCC3)C2)c1 [Compound 155, 2-[6-amino-5-[8-[2-[3-(2-azaspiro[3.4]octan-2-yl)prop-1-ynyl]-4-pyridyl]-3,8-diazabicyclo[3.2.1]octan-3-yl]pyridazin-3-yl]phenol] | < 10 | < 10 | E (E indicates −30%-−70%) |  | 30 to 70
8 | Nc1nnc(-c2ccccc2O)cc1N1CC2CCC(C1)N2c1ccnc(C#CCN2CC3(CCCCC3)C2)c1 [Compound 230, 2-[6-amino-5-[8-[2-[3-(2-azaspiro[3.5]nonan-2-yl)prop-1-ynyl]-4-pyridyl]-3,8-diazabicyclo[3.2.1]octan-3-yl]pyridazin-3-yl]phenol] | 10 to 100 | 10 to 100 | E (E indicates −30%-−70%) |  | 30 to 70
9 | Nc1nnc(-c2ccccc2O)cc1N1CC2CCC(C1)N2c1ccnc(C#CCN2CC3COCC3C2)c1 (centres unmarked) [Compound 76, 2-[5-[8-[2-[3-(1,3,3a,4,6,6a-hexahydrofuro[3,4-c]pyrrol-5-yl)prop-1-ynyl]-4-pyridyl]-3,8-diazabicyclo[3.2.1]octan-3-yl]-6-amino-pyridazin-3-yl]phenol] | < 10 | < 10 | E (E indicates −30%-−70%) |  | 0 to 30
10 | CC1(CO)CN(CC#Cc2cc(N3C4CCC3CN(c3cc(-c5ccccc5O)nnc3N)C4)ccn2)C1 [Compound 170, 2-[6-amino-5-[8-[2-[3-[3-(hydroxymethyl)-3-methyl-azetidin-1-yl]prop-1-ynyl]-4-pyridyl]-3,8-diazabicyclo[3.2.1]octan-3-yl]pyridazin-3-yl]phenol] | > 100 | 10 to 100 | E (E indicates −30%-−70%) |  | 30 to 70
11 | Nc1nnc(-c2ccccc2O)cc1N1CC2CCC(C1)N2c1ccnc(C#CCN2CCN3CCCC3C2)c1 (centres unmarked) [Compound 67, 2-[5-[8-[2-[3-(3,4,6,7,8,8a-hexahydro-1H-pyrrolo[1,2-a]pyrazin-2-yl)prop-1-ynyl]-4-pyridyl]-3,8-diazabicyclo[3.2.1]octan-3-yl]-6-amino-pyridazin-3-yl]phenol] | < 10 | 10 to 100 | E (E indicates −30%-−70%) |  | 0 to 30
12 | CC(C)(N)C#Cc1cc(N2C3CCC2CN(c2cc(-c4ccccc4O)nnc2N)C3)ccn1 [Compound 36, 2-[6-amino-5-[8-[2-(3-amino-3-methyl-but-1-ynyl)-4-pyridyl]-3,8-diazabicyclo[3.2.1]octan-3-yl]pyridazin-3-yl]phenol] | 10 to 100 | 10 to 100 | E (E indicates −30%-−70%) |  | 30 to 70
13 | CN1CCOC2(C1)CN(CC#Cc1cc(N3C4CCC3CN(c3cc(-c5ccccc5O)nnc3N)C4)ccn1)C2 [Compound 188, 2-[6-amino-5-[8-[2-[3-(8-methyl-5-oxa-2,8-diazaspiro[3.5]nonan-2-yl)prop-1-ynyl]-4-pyridyl]-3,8-diazabicyclo[3.2.1]octan-3-yl]pyridazin-3-yl]phenol] | > 100 | > 100 | E (E indicates −30%-−70%) |  | 
14 | Nc1nnc(-c2ccccc2O)cc1N1CC2CCC(C1)N2c1ccnc(C#CCN2CC(C3CCOC3)C2)c1 (centres unmarked) [Compound 157, 2-[6-amino-5-[8-[2-[3-(3-tetrahydrofuran-3-ylazetidin-1-yl)prop-1-ynyl]-4-pyridyl]-3,8-diazabicyclo[3.2.1]octan-3-yl]pyridazin-3-yl]phenol] | 10 to 100 | 10 to 100 | E (E indicates −30%-−70%) |  | 30 to 70
15 | CC1CCN1CC#Cc1cc(N2C3CCC2CN(c2cc(-c4ccccc4O)nnc2N)C3)ccn1 (centres unmarked) [Compound 184, 2-[6-amino-5-[8-[2-[3-(2-methylazetidin-1-yl)prop-1-ynyl]-4-pyridyl]-3,8-diazabicyclo[3.2.1]octan-3-yl]pyridazin-3-yl]phenol] | < 10 | < 10 | E (E indicates −30%-−70%) |  | 30 to 70
16 | Nc1nnc(-c2ccccc2O)cc1N1CCC2(CCN(c3ccnc(C#CCN4CCCCCC4)c3)C2)CC1 [Compound 250, 2-(6-amino-5-(2-(2-(3-(azepan-1-yl)prop-1-yn-1-yl)pyridin-4-yl)-2,8-diazaspiro[4.5]decan-8-yl)pyridazin-3-yl)phenol] | 10 to 100 | < 10 | E (E indicates −30%-−70%) |  | 30 to 70
17 | Nc1nnc(-c2ccccc2O)cc1N1CC2CCC(C1)N2c1ccnc(C#CCN2CCOC3CC32)c1 (centres unmarked) [Compound 74, 2-[6-amino-5-[8-[2-[3-(2-oxa-5-azabicyclo[4.1.0]heptan-5-yl)prop-1-ynyl]-4-pyridyl]-3,8-diazabicyclo[3.2.1]octan-3-yl]pyridazin-3-yl]phenol] | > 100 | 10 to 100 | E (E indicates −30%-−70%) |  | 
18 | Nc1nnc(-c2ccccc2O)cc1N1CC2CCC(C1)N2c1ccnc(C#CCN2CC3COC(C3)C2)c1 (centres unmarked) [Compound 98, 2-[6-amino-5-[8-[2-[3-(6-oxa-3-azabicyclo[3.2.1]octan-3-yl)prop-1-ynyl]-4-pyridyl]-3,8-diazabicyclo[3.2.1]octan-3-yl]pyridazin-3-yl]phenol] | > 100 | 10 to 100 | E (E indicates −30%-−70%) |  | 
19 | Nc1nnc(-c2ccccc2O)cc1N1CC2CCC(C1)N2c1ccnc(C#CCN2CCC3CCCC32)c1 (centres unmarked) [Compound 94, 2-[5-[8-[2-[3-(3,3a,4,5,6,6a-hexahydro-2H-cyelopenta[b]pyrrol-1-yl)prop-1-ynyl]-4-pyridyl]-3,8-diazabicyclo[3.2.1]octan-3-yl]-6-amino-pyridazin-3-yl]phenol] | < 10 | < 10 | E (E indicates −30%-−70%) |  | 30 to 70
20 | Nc1nnc(-c2ccccc2O)cc1N1CC2CCC(C1)N2c1ccnc(C#CCN2CC[C@@]3(O)C[C@H]3C2)c1 [Compound 117, (1S,6S)-3-[3-[4-[3-[3-amino-6-(2-hydroxyphenyl)pyridazin-4-yl]-3,8-diazabicyclo[3.2.1]octan-8-yl]-2-pyridyl]prop-2-ynyl]-3-azabicyclo[4.1.0]heptan-6-ol] | 10 to 100 | 10 to 100 | E (E indicates −30%-−70%) |  | 0 to 30
21 | Nc1nnc(-c2ccccc2O)cc1N1CC2CCC(C1)N2c1ccnc(C#CCN2CC(O)C2)c1 [Compound 168, 1-[3-[4-[3-[3-amino-6-(2-hydroxyphenyl)pyridazin-4-yl]-3,8-diazabicyclo[3.2.1]octan-8-yl]-2-pyridyl]prop-2-ynyl]azetidin-3-ol] | 10 to 100 | 10 to 100 | F (F indicates −71%-−120%) | E (E indicates −30%-−70%) | 
